Experimental data: PubChem BioAssay AID1963962 (Molecular Pharmacology Branch, DTP, NCI, 2024)

Test system: 967376-340-R-J2-PDC multicell spheroid viability
Assay: Anticancer human tumor 967376-340-R-J2-PDC patient-derived colon adenocarcinoma cell line growth inhibition [PI3K]
Details: for IC50: curve of first compound; for viability, T/C: stronger effect = lower value
Description: Combinatorial screen of targeted agents with the PI3K inhibitors inavolisib, alpelisib, duvelisib, and copanlisib in multi-cell type tumor spheroids
A high-throughput screen of multi-cell type tumor spheroids was designed to identify active combinations of targeted small molecules and PI3K pathway inhibitors. Complex spheroids include a stromal component modeled by human endothelial cells (HUVEC) and fibroblasts modeled by human mesenchymal stem cells (MSCs). The concentration ranges selected for each drug and investigational agent were based upon clinically achievable concentrations if the clinical Cmax of the agent was known.
Compounds. The drugs and investigational agents: inavolisib (NSC800729), alpelisib (NSC765974), duvelisib (NSC772469), copanlisib (NSC816437), ipatasertib (NSC767898), afuresertib (NSC778305), talazoparib (NSC767125), sapanisertib (NSC764658), selumetinib (NSC741078), tovorafenib (DAY101, NSC766906), vemurafenib (NSC761431), ravoxertinib (NSC781343), sotorasib (NSC818433), MRTX1133 (NSC 836407), abemaciclib (NSC 768073), palbociclib (NSC758247), venetoclax (NSC 766270), SY5609 (NSC837396), enzalutamide (NSC755605), and darolutamide (NSC825331), were obtained from the National Cancer Institute (NCI) Developmental Therapeutics Program Chemical Repository. The FDA-approved anticancer drug set is available from the NCI Developmental Therapeutics Program. […] The stock solutions were prepared in dimethyl sulfoxide (DMSO, Sigma-Aldrich, St. Louis, MO, cat. D2650) at 800-fold the tested concentration and stored at -70 degrees C prior to their use. All drugs and investigational agents were tested over a range starting from a high concentration at or near the clinical Cmax and decreasing in half-log increments. If the clinical Cmax for an agent had not been determined, the highest concentration tested was 10 microM.
Cell Culture. All cells were maintained in an incubator at 37 degrees C and 5% CO2 with 95% humidity. The PDC lines were cultured according to standard operating procedures established by the NCI PDMR (https://pdmr.cancer.gov/sops/default.htm). All PDCs were thawed and cultured in Matrigel-coated flasks prepared with a working solution of 1X Ham's F-12 nutrient mix, without supplementation (Invitrogen, Waltham, MA, cat. 11765054), 100 U/mL penicillin-streptomycin (Invitrogen, cat. 15140122), and 2.5% Matrigel (Corning Inc., Corning, NY, cat. 354248) for the first three passages. The 354836-022-R-J1-PDC, 475296-252-R-J1-PDC, and 997726-040-R-J2-PDC lines were cultured in 6A media, which includes advanced DMEM/F-12 (Thermo Fisher Scientific, cat. 12634028), 10 mM HEPES (Thermo Fisher Scientific, cat. 15630080), 1X GlutaMAX supplement (Thermo Fisher Scientific, cat. 35050061), 0.1 mg/mL primocin (InvivoGen, San Diego, CA, cat. ant-pm-2), 10% defined fetal bovine serum, heat inactivated (HyClone Laboratories Inc., Logan, UT, cat. SH30070.03HI), 50% L-WRN conditioned media (ATCC, cat. CRL-3276), 1.25 mM N-Acetyl-L-cysteine (Sigma-Aldrich, cat. A9165), 10 mM nicotinamide (Sigma-Aldrich, cat. N0636), 1X B-27 supplement (Thermo Fisher Scientific, cat. 17504044), 1X N-2 supplement (Thermo Fisher Scientific, cat. 17502048), and 10 microM Y-27632 dihydrochloride (Tocris Bioscience, Bristol, United Kingdom, cat. 1254). The 624824-186-R-J2-PDC line was cultured in 6C/Colon 1B media, which includes all 6A media components plus 50 ng/mL human EGF recombinant protein (Thermo Fisher Scientific, cat. PHG0311). […]
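Further: spheroids exposed to agents for 7 days before read-out.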
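Wherever viability, T/C is given: luminescence used as surrogate of cell viability.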

SMILES: CCCS(=O)(=O)Nc1ccc(F)c(C(=O)c2c[nH]c3ncc(-c4ccc(Cl)cc4)cc23)c1F + CC(Nc1ccc2c(c1)OCCn1cc(N3C(=O)OCC3C(F)F)nc1-2)C(N)=O
- IC50 (second compound 0.00316 µM): > 10 µM
- IC50 (second compound 0.01 µM): 9.81 µM
- IC50 (second compound 0.0316 µM): > 10 µM
- IC50 (second compound 0.1 µM): 8.12 µM
- IC50 (second compound 0.316 µM): > 10 µM
- IC50 (second compound 1 µM): 3.83 µM
- viability, T/C (second compound 0.00316 µM, first compound 0.0316 µM): 87.1%
- viability, T/C (second compound 0.00316 µM, first compound 0.1 µM): 77.7%
- viability, T/C (second compound 0.00316 µM, first compound 0.316 µM): 98.3%
- viability, T/C (second compound 0.00316 µM, first compound 1 µM): 60.2%
- viability, T/C (second compound 0.00316 µM, first compound 3.16 µM): 81.4%
- viability, T/C (second compound 0.00316 µM, first compound 10 µM): 53.4%
- viability, T/C (second compound 0.01 µM, first compound 0.0316 µM): 95.5%
- viability, T/C (second compound 0.01 µM, first compound 0.1 µM): 86.5%
- viability, T/C (second compound 0.01 µM, first compound 0.316 µM): 88.7%
- viability, T/C (second compound 0.01 µM, first compound 1 µM): 70.3%
- viability, T/C (second compound 0.01 µM, first compound 3.16 µM): 89.4%
- viability, T/C (second compound 0.01 µM, first compound 10 µM): 49.6%
- viability, T/C (second compound 0.0316 µM, first compound 0.0316 µM): 72%
- viability, T/C (second compound 0.0316 µM, first compound 0.1 µM): 79.6%
- viability, T/C (second compound 0.0316 µM, first compound 0.316 µM): 65.2%
- viability, T/C (second compound 0.0316 µM, first compound 1 µM): 93.3%
- viability, T/C (second compound 0.0316 µM, first compound 3.16 µM): 91.9%
- viability, T/C (second compound 0.0316 µM, first compound 10 µM): 67.8%
- viability, T/C (second compound 0.1 µM, first compound 0.0316 µM): 69.9%
- viability, T/C (second compound 0.1 µM, first compound 0.1 µM): 73.8%
- viability, T/C (second compound 0.1 µM, first compound 0.316 µM): 80.3%
- viability, T/C (second compound 0.1 µM, first compound 1 µM): 77.9%
- viability, T/C (second compound 0.1 µM, first compound 3.16 µM): 81.5%
- viability, T/C (second compound 0.1 µM, first compound 10 µM): 44.1%
- viability, T/C (second compound 0.316 µM, first compound 0.0316 µM): 64.5%
- viability, T/C (second compound 0.316 µM, first compound 0.1 µM): 61.3%
- viability, T/C (second compound 0.316 µM, first compound 0.316 µM): 73.8%
- viability, T/C (second compound 0.316 µM, first compound 1 µM): 76.2%
- viability, T/C (second compound 0.316 µM, first compound 3.16 µM): 75.2%
- viability, T/C (second compound 0.316 µM, first compound 10 µM): 37.6%
- viability, T/C (second compound 1 µM, first compound 0.0316 µM): 61.5%
- viability, T/C (second compound 1 µM, first compound 0.1 µM): 55.5%
- viability, T/C (second compound 1 µM, first compound 0.316 µM): 58.9%
- viability, T/C (second compound 1 µM, first compound 1 µM): 56%
- viability, T/C (second compound 1 µM, first compound 3.16 µM): 52.6%
- viability, T/C (second compound 1 µM, first compound 10 µM): 39.5%
